Assay results reported in US20100298302A1, “NOVEL PROTEIN KINASE MODULATORS” (priority 2009, published 2010).

Tests used:
Assay type in all cases: biochemical
[1] = target: recombinant PIM-1 (Homo sapiens, UniProt P11309); test: PIM-1 kinase assay; conditions: for inhibition at 0.5 µM: 500 nM compound, read-out: PIM1: % inh 500 nM; for IC50: Table 5, read-out: PIM1 IC50
Method: The following procedure was used to assay the PIM-1 kinase activity of compounds of the invention. Other methods for assaying PIM-1 and other PIM kinases, as well as methods to assay for activity against various kinases known in the art.
In a final reaction volume of 50 ul, recombinant PIM-1 (1 ng) was incubated with 12 mM MOPS pH 7.0, 0.4 mM EDTA, glycerol 1%, brij 35 0.002%, 2-mercaptoethanol 0.02%, BSA 0.2 mg/ml, 100 uM KKRNRTLTK, 10 mM MgAcetate, 15 uM ATP, [γ-^33P-ATP] (specific activity approx. 500 cpm/pmol), DMSO 4% and test inhibitor compound at the required concentration. The reaction was initiated by the addition of the Magnesium ATP mixture. After 40 min incubation at 23° C., the reactions were quenched by the addition of 100 ul 0.75% Phosphoric acid, and the labeled peptide collected by filtration through a phosphocellulose filter plate. The plate was washed 4 times with 0.075% phosphoric acid (100 ul per well) and then, after the addition of scintillation fluid (20 ul per well), the counts were measured by a scintillation counter.

[2] = target: T1, recombinant human CK2 (Homo sapiens, UniProt P68400); test: cell-free CK2 assay
T1 construct: purchased Upstate
Method: Modulatory activity of compounds described herein was assessed in vitro in cell-free CK2 assays by the following method.
Test compounds in aqueous solution were added at a volume of 10 microliters, to a reaction mixture comprising 10 microliters Assay Dilution Buffer (ADB; 20 mM MOPS, pH 7.2, 25 mM beta-glycerolphosphate, 5 mM EGTA, 1 mM sodium orthovanadate and 1 mM dithiothreitol), 10 microliters of substrate peptide (RRRDDDSDDD, dissolved in ADB at a concentration of 1 mM), 10 microliters of recombinant human CK2 (25 ng dissolved in ADB; Upstate). Reactions were initiated by the addition of 10 microliters of ATP Solution (90% 75 mM MgCl2, 75 micromolar ATP dissolved in ADB; 10% [γ-^33P]ATP (stock 1 mCi/100 μl; 3000 Ci/mmol (Perkin Elmer) and maintained for 10 minutes at 30 degrees C. The reactions were quenched with 100 microliters of 0.75% phosphoric acid, then transferred to and filtered through a phosphocellulose filter plate (Millipore). After washing each well 5 times with 0.75% phosphoric acid, the plate was dried under vacuum for 5 min and, following the addition of 15 ul of scintilation fluid to each well, the residual radioactivity was measured using a Wallac luminescence counter.

[3] = target: recombinant human PIM2 (Homo sapiens, UniProt Q9P1W9); test: PIM-2 kinase assay
Method: Test compounds dissolved and diluted in DMSO (2 μl) were added to a reaction mixture comprising 10 μl of 5× Reaction Buffer (40 mM MOPS pH 7.0, 5 mM EDTA), 10 μl of recombinant human PIM2 solution (4 ng PIM-2 dissolved in dilution buffer (20 mM MOPS pH 7.0; EDTA 1 mM; 5% Glycerol; 0.01% Brij 35; […]; […] 2-mercaptoethanol; 1 mg/ml BSA)) and 8 ul of water. Reactions were initiated by the addition of 10 ul of ATP Solution ([…] (15 mM MgCl2; 75 uM ATP) 1% ([γ-33P]ATP: Stock 1 mCi/100 μl; 3000 Ci/mmol (Perkin Elmer)) and 10 ul of substrate peptide solution (RSRSSYPAGT, dissolved in water at a concentration of 1 mM), Reactions were maintained for 10 min at 30° C. The reactions were quenched with 100 ul of 0.75% Phosphoric acid, then transferred to and filtered through a Phosphocellulose filter plate (Millipore, MSPH-N6B-50). After washing each well 4 times with 0.75% Phosphoric acid, scintillation fluid (20 uL) was added to each well and the residual radioactivity was measured using a Wallac luminescence counter.

Chain of recombinant human PIM2 (Q9P1W9 whole entry): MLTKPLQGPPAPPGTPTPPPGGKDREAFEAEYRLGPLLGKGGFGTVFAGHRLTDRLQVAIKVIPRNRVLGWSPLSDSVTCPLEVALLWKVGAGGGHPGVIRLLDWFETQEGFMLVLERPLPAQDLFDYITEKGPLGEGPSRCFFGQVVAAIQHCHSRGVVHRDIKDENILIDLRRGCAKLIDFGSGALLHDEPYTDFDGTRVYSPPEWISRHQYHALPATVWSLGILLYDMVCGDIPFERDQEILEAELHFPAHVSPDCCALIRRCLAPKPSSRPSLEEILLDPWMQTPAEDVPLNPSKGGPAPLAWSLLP
T1 sequence (P68400 whole entry): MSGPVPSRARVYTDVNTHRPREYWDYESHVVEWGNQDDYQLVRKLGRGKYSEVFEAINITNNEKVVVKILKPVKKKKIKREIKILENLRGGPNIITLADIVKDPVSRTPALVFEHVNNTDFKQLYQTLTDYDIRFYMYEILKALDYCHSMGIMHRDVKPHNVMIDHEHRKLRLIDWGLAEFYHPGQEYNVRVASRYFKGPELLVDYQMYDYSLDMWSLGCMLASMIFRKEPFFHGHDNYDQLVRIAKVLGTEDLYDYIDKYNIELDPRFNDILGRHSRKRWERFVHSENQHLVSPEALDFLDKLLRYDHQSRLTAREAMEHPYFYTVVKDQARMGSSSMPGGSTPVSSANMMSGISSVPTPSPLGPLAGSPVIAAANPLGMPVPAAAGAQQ
T1 sequence (P67870 whole entry partner): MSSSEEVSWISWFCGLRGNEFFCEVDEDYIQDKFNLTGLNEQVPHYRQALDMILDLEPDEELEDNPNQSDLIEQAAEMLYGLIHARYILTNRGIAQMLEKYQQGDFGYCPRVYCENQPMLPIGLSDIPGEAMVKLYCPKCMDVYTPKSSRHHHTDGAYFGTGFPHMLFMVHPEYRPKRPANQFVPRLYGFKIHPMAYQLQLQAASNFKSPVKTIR
Chain of recombinant PIM-1 (P11309 whole entry): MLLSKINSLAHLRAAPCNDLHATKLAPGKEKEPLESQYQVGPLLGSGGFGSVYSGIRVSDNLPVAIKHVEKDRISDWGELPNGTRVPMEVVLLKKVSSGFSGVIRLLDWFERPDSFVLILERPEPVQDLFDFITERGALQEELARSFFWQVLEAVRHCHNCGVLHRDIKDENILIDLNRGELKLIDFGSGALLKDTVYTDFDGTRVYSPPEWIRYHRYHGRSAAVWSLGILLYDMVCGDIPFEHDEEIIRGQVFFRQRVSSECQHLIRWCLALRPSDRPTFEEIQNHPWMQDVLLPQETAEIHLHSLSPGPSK

| SMILES | inhibition at 0.5 µM [1] | IC50 [2] | IC50 [1] | IC50 [3] |
| --- | --- | --- | --- | --- |
| CC(=O)N1CCN(C(=O)c2ccc3c(c2)[nH]c(=O)c2cccn23)CC1 | -8.35% |  |  |  |
| CC(C)(C)OC(=O)N1CCN(C(=O)c2ccc3c(c2)[nH]c(=O)c2cccn23)CC1 | -27.1% |  |  |  |
| CC(C)(C)OC(=O)N1CCCN(C(=O)c2ccc3c(c2)[nH]c(=O)c2cccn23)CC1 | -46.9% |  |  |  |
| CN(C)CCNC(=O)c1ccc2c(c1)[nH]c(=O)c1cccn12 | -13.9% |  |  |  |
| NC(=O)c1ccc2c(c1)[nH]c(=O)c1cccn12 | -22.5% |  |  |  |
| O=C(c1ccc2c(c1)[nH]c(=O)c1cccn12)N1CCNCC1 | -11.8% |  |  |  |
| O=C(c1ccc2c(c1)[nH]c(=O)c1cccn12)N1CCCNCC1 | -0.195% |  |  |  |
| CN1CCN(C(=O)c2ccc3c(c2)[nH]c(=O)c2cccn23)CC1 | -31.9% |  |  |  |
| O=C(O)c1cccc2c1[nH]c(=O)c1cccn12 |  | < 5000 nM | > 2500 nM | > 2500 nM |
| NC(=O)c1cccc2c1[nH]c(=O)c1cccn12 |  | > 5000 nM | > 2500 nM | > 2500 nM |
| O=c1[nH]c2c(-c3nnc[nH]3)cccc2n2cccc12 |  | < 5000 nM | > 2500 nM | > 2500 nM |
| c1cc(-c2nnc[nH]2)c2nc(Nc3nccs3)c3cccn3c2c1 |  | < 5000 nM | < 5000 nM | < 5000 nM |
| COc1ccc(Sc2nc3c(-c4nnc[nH]4)cccc3n3cccc23)cc1 |  | < 100 nM | < 100 nM | < 5000 nM |
| Brc1cccc(Nc2nc3c(-c4nnc[nH]4)cccc3n3cccc23)c1 |  | < 100 nM | < 100 nM | < 100 nM |
| c1cc(-c2nnc[nH]2)c2nc(NC3CC3)c3cccn3c2c1 |  | < 1000 nM | < 100 nM | < 1000 nM |
| c1cc(-c2nnc[nH]2)c2nc(NCC3CC3)c3cccn3c2c1 |  | < 5000 nM | < 100 nM | < 1000 nM |
| FC(F)(F)CCNc1nc2c(-c3nnc[nH]3)cccc2n2cccc12 |  | < 5000 nM | < 100 nM | < 1000 nM |
| CN(C)CCNc1nc2c(-c3nnc[nH]3)cccc2n2cccc12 |  | > 5000 nM | > 2500 nM | > 2500 nM |

Continued, values first:

| inhibition at 0.5 µM [1] | IC50 [2] | IC50 [1] | IC50 [3] | SMILES |
| --- | --- | --- | --- | --- |
|  | < 1000 nM | < 100 nM | < 1000 nM | NC(=O)c1cccc2c1nc(Nc1ccccc1Cl)c1cccn12 |
|  | < 1000 nM | < 100 nM | < 100 nM | Fc1ccc(Nc2nc3c(-c4nnc[nH]4)cccc3n3cccc23)c(Cl)c1 |
|  | < 1000 nM | < 1000 nM | < 1000 nM | O=C(O)c1cccc2c1nc(Nc1ccccc1F)c1cccn12 |
|  | < 5000 nM |  | > 2500 nM | CCOC(=O)c1cccc2c1[nH]c(=O)c1cncn12 |
|  | < 5000 nM |  | > 2500 nM | CCOC(=O)c1cccc2c1nc(Nc1ccccc1F)c1cncn12 |
|  | < 1000 nM |  | > 2500 nM | O=C(O)c1cccc2c1nc(Nc1ccccc1F)c1cncn12 |
|  | < 100 nM |  | < 100 nM | NC(=O)c1cccc2c1nc(Nc1ccccc1F)c1cncn12 |
|  | > 5000 nM |  | > 2500 nM | CCOC(=O)c1cccc2c1[nH]c(=O)c1nccn12 |
